Experimental data from article PMC3475717, “A Spiroligomer α-Helix Mimic That Binds HDM2, Penetrates Human Cells and Stabilizes HDM2 in Cell Culture” (PLoS ONE, 2012).
Several values for one entry are separate records, joined by “and”; a condition that tells them apart may be missing. Equal values may be shown once. Entries after “also recorded” stand apart in the source; their conditions may differ.

What was measured:
HDM2_25–117 = target: T1, HDM2_25–117 (Homo sapiens, UniProt Q00987); assay: direct binding fluorescence polarization assay; details: fluorescein labeled ligand at 10 nM, varying HDM2; read-out: Kd (HDM2/MDM2)
T1 construct: unnamed fusion partner ('fusion protein'); made in house; host or cells: E. coli BL21
Procedure: To measure the binding affinity of the functionalized spiroligomers to HDM2 we utilized a direct binding fluorescence polarization assay. The binding of the fluorescein labeled spiroligomers was measured at 10 nM spiroligomer in the presence of varying concentrations of HDM2_25–117 [31]. […] The initial screen of spiroligomers including 3–7 was carried out on the spiroligomer backbone containing all (S) stereochemistry to identify appropriate functional groups to mimic the side chains of Phe19, Trp23 and Leu26 of the p53 helix.
HDM2 Protein Expression. A fusion protein consisting of residues 1-140 (the plasmid was a generous gift from the lab of Neil Zondlo, University of Delaware) was prepared by over-expression.4 Plasmids were used to transform chemically competent E-coli BL21 Cells (Novagen), and a single colony was used to inoculate 2×4 mL LB media culture tubes containing 0.1 mg/mL ampicillin, at 37 °C overnight. These overnight cultures were used to inoculate a 1 L culture of TB media containing 0.1 mg/ml ampicillin. The culture was incubated at 37 °C with shaking at 250 rpm until the optical density at 600 nm reached to 0.9 absorbance units. Protein overexpression was then induced by the addition of 20% isopropyl β-D-thiogalactoside (IPTG) to 0.4 mM final concentration. The culture was then grown for additional 5 hours at 30 °C. Then cells were harvested at 4 °C by centrifugation at 4500 rpm for 20 min.
The cell pellet was resuspended in chilled 1x Binding Buffer (0.5 M NaCl, 20 mMTris-Hcl, 5 mM imidazole, pH 7.9), frozen and stored at -80 °C until protein purification.
Protein Purification. The frozen cell pellet was thawed at 4 °C and lysed by sonication for 2 minutes with 10 sec on and 20 sec off. Cell debris was pelleted by centrifugation for 30 min at 15000 g, 4 °C and the supernatant was filtered through a 0.2 μm syringe filter. A column was prepared using 2 mL Novagen His-Bind suspended resin and resin was washed with 3 volumes DI water. The flow rate maintained was not more than 0.5 ml/min throughout the purification.
The resin was charged with 5 vol 1x Charge Buffer (50 mM NiSO4) and then equilibrated with 3 vol 1x Binding Buffer (5 mM imidazole). After loading the column with prepared extract, the resin was washed with 10 vol 1x Binding Buffer and then with 6 vol 1x Wash Buffer (10 mM imidazole). Protein was then eluted with 6 vol 1x Elution Buffer (1 M imidazole). The eluate was captured in fractions of 0.5 ml. Fractions were assayed with Coomasie blue and desired fractions were combined and dialyzed using spectra/por 6 Dialysis Membranes of 10,000 MWCO (Spectrum Laboratories) in PBS (pH 7.4, 5 mM EDTA and 0.5 mM DTT) for overnight.
The resulting protein was characterized by SDS-PAGE (4-20% gradient gel) for purity analysis and concentrations were measured by UV analysis.
Fresh protein was used immediately for protein binding experiments. […]
Direct Binding Fluorescence Polarization Experiments. Fluorescence polarization experiments were undertaken to assess the ability of spiroligomers to bind HDM2, a protein with hydrophobic cleft that binds the p53 N-terminal helical domain. Fluoresceinated oligomers (conc. of 10 nM) were incubated for 30 minutes at room temperature with sequential dilutions of […]

HDM2 [1] = target: T2, HDM2 (Homo sapiens, UniProt Q00987); assay: competition fluorescence polarization experiment (displacement of Flp4 peptide); type: binding; details: Flp4 at 10 nM with 2 µM HDM2, series of concentrations of spiroligomer; read-out: Ki against Flp4 peptide
T2 construct: A fusion protein consisting of residues 1-140; unnamed fusion partner ('fusion protein'); made in house; host or cells: E. coli BL21

HDM2 [2] = target: T2, HDM2; assay: as above; type: binding; details: hDM2 0.4 μM, Flp4 10 nM, three independent trials
Procedure: Competition Fluorescence Polarization Experiments. To assess the ability of oligomer 2 to […]
competition experiments were undertaken. hDM2 (0.4 μM) and Flp4 control peptide (10 nM) were incubated at room temperature for 30 minutes in binding buffer, followed by the addition of serial dilutions of oligomer 2 (final conc. 400 μM to 0.194 μM). The binding experiments were incubated for a further 30 minute time period, followed by recording of the polarization data. See […]
Bis- Pept ide ( nM ) Po lar A ( mP)
Table S.6. Table of raw values used for the plot of the competition binding experiment; X values are oligomer 2 concentration (in nM) and Y values are polarization (in millipolarization units); data from three independent trials is shown.

[3] = test system: HDM2, p53Y220C and p21 in Huh7 cells; assay: Western blot analysis of HDM2, p53 and p21; type: cell-based, human
Procedure: Huh7 cells were incubated with spiroligomer 1 and Nutlin-3 in media at 2, 5, 10 and 20 µM for 17 hours at 37°C. […] Huh7 cells were then incubated with 1 at 15 µM and cells were harvested at 2, 4, 6, 8, 12 and 24 hours. […]
Cell Culture and Treatment. HepG2 (expressing wild-type p53) and Huh7 (expressing mutant p53) cell lines were purchased from the American Type Culture Collection (ATCC) and cultured as monolayers in Dulbecco’s modified Eagle’s medium (DMEM) (Invitrogen) supplemented with 100 mM nonessential amino acid solution, 100 mM sodium pyruvate, 100 U/mL penicillin, 100 μg/mL streptomycin, and 10% heat inactivated fetal bovine serum (FBS) (all from Hyclone).
Cells were maintained at 37° C and 5% CO2 and were treated with media that contained 0.5%
FBS. Nutlin-3 (Sigma) was dissolved in 0.01% DMSO (Sigma).
Both nutlin-3 and spiroligomers were added into the medium for final concentrations of 2 µM, 5 µM, 10 µM and 20 µM for 24 hours. For the western blot experiments detailed below, the time length for incubation with bis-peptide was 17 hours. […]
Western Blotting. For protein extraction, cells were lysed in cell lysis buffer (Cell Signaling) with a protease inhibitor cocktail for 20 minutes on ice. Protein extracts (50 μg) were separated by SDS-PAGE electrophoresis, transferred to nitrocellulose membranes (Schleicher & Schuell), and incubated overnight with primary antibodies to p53, HDM2, p21, and β-actin (all from Santa Cruz Biotechnology). The blots were developed using ECL plus detection system (Amersham Biosciences) and exposed to Kodak imaging films (Kodak BioMax). Images were quantified using ImageJ software (NIH).
Figure S.5. Detection of bis-peptide 1 and Nutlin-3 in HepG2 (left) and Huh7 (right) cells. The concentration of each compound is given in μM and the three proteins (HDM2, p53 and p21) bands are […]

T1 sequence (Q00987 25-117): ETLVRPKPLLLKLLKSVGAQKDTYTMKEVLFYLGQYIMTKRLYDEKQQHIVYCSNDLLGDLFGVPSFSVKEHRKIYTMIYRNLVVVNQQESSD
T2 sequence (Q00987 1-140): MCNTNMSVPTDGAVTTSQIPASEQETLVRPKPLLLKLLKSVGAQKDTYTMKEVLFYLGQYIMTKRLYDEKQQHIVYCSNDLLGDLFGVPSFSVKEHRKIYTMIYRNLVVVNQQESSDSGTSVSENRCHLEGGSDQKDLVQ

SMILES: CC(C)CN1C(=O)[C@@H]2C[C@@]3(CN2C(=O)[C@@]12C[C@H]1C(=O)N(Cc4ccc(Cl)c(Cl)c4)[C@@]4(C[C@H]5C(=O)N[C@H](CCc6ccccc6)C(=O)N5C4)C(=O)N1C2)NC(=O)[C@H](CCCCNC(=S)Nc1ccc2c(c1)C(=O)OC21c2ccc(O)cc2Oc2cc(O)ccc21)NC3=O [Compound 8]
- Kd (HDM2_25–117): 23 µM

SMILES: CC(C)CN1C(=O)[C@@H]2C[C@@]3(CN2C(=O)[C@@]12C[C@H]1C(=O)N(Cc4ccc(Cl)c(Cl)c4)[C@]4(C[C@@H]5C(=O)N[C@@H](CCc6ccccc6)C(=O)N5C4)C(=O)N1C2)NC(=O)[C@H](CCCCNC(=S)Nc1ccc2c(c1)C(=O)OC21c2ccc(O)cc2Oc2cc(O)ccc21)NC3=O [Compound 9]
- Kd (HDM2_25–117): 6.7 µM

SMILES: CC(C)CN1C(=O)C2CC3(CN2C(=O)C12CC1C(=O)N(Cc4ccc(Cl)c(Cl)c4)C4(CC5C(=O)NC(CCc6ccccc6)C(=O)N5C4)C(=O)N1C2)NC(=O)C(CCC(=O)O)NC3=O (stereo not drawn) [Compound 2]
- Ki (HDM2 [1]): 5 µM
- polarization of Flp4 in competition (HDM2 [2]; oligomer 194.8242 nM): 115. 56 mP and 119. 19 mP and 107. 52 mP
- polarization of Flp4 in competition (HDM2 [2]; oligomer 389.6484 nM): 109. 71 mP and 120. 5 mP and 117. 89 mP
- polarization of Flp4 in competition (HDM2 [2]; oligomer 779.2969 nM): 107. 07 mP and 119. 05 mP and 110. 95 mP
- polarization of Flp4 in competition (HDM2 [2]; oligomer 1558.594 nM): 102. 29 mP and 112. 93 mP and 113. 76 mP
- polarization of Flp4 in competition (HDM2 [2]; oligomer 3117.188 nM): 103. 88 mP and 103. 29 mP and 109. 28 mP
- polarization of Flp4 in competition (HDM2 [2]; oligomer 6234.375 nM): 97.23 mP and 94.66 mP and 93.84 mP
- polarization of Flp4 in competition (HDM2 [2]; oligomer 12468.75 nM): 91.7 mP and 86.62 mP and 91.97 mP
- polarization of Flp4 in competition (HDM2 [2]; oligomer 24937.5 nM): 88.82 mP and 82 mP and 88.53 mP
- polarization of Flp4 in competition (HDM2 [2]; oligomer 49875 nM): 86.21 mP and 84.81 mP and 86.83 mP
- polarization of Flp4 in competition (HDM2 [2]; oligomer 99750 nM): 78.06 mP and 93.73 mP and 94.13 mP
- polarization of Flp4 in competition (HDM2 [2]; oligomer 199500 nM): 84.38 mP and 85.9 mP and 80.84 mP
- polarization of Flp4 in competition (HDM2 [2]; oligomer 399000 nM): 75.41 mP and 67.78 mP and 78.26 mP

SMILES: CC(C)CN1C(=O)[C@@H]2C[C@@]3(CN2C(=O)[C@@]12C[C@H]1C(=O)N(Cc4ccc(Cl)c(Cl)c4)[C@]4(C[C@H]5C(=O)N[C@@H](CCc6ccccc6)C(=O)N5C4)C(=O)N1C2)NC(=O)[C@@H](CCCCNC(=S)Nc1ccc2c(c1)C(=O)OC21c2ccc(O)cc2Oc2cc(O)ccc21)NC3=O [Compound 12]
- Kd (HDM2_25–117): 1.6 µM

SMILES: COc1ccc(C2=N[C@@H](c3ccc(Cl)cc3)[C@@H](c3ccc(Cl)cc3)N2C(=O)N2CCNC(=O)C2)c(OC(C)C)c1 [Nutlin-3]
- HDM2 levels relative to control cells [3]: not seen; also recorded: very weak stabilization effect on HDM2
- HDM2 levels with time [3]: only very small changes; also recorded: very little effect on HDM2
- p53Y220C levels [3]: No visible effect
- p53Y220C levels with time [3]: no observable effect on p53Y220C levels

SMILES: CC(C)CN1C(=O)[C@@H]2C[C@@]3(CN2C(=O)[C@@]12C[C@H]1C(=O)N(Cc4ccc(Cl)c(Cl)c4)[C@@]4(C[C@H]5C(=O)N[C@H](CCc6ccccc6)C(=O)N5C4)C(=O)N1C2)NC(=O)[C@@H](CCCCNC(=S)Nc1ccc2c(c1)C(=O)OC21c2ccc(O)cc2Oc2cc(O)ccc21)NC3=O [Compound 11]
- Kd (HDM2_25–117): 4.6 µM

SMILES: CC(C)CN1C(=O)[C@@H]2C[C@@]3(CN2C(=O)[C@@]12C[C@H]1C(=O)N(Cc4cccc5ccccc45)[C@]4(C[C@H]5C(=O)N[C@@H](Cc6ccccc6)C(=O)N5C4)C(=O)N1C2)NC(=O)[C@H](CCCCNC(=S)Nc1ccc2c(c1)C(=O)OC21c2ccc(O)cc2Oc2cc(O)ccc21)NC3=O [Compound S10]
- Kd (HDM2_25–117): 16 µM

SMILES: CC(C)CCN1C(=O)[C@@H]2C[C@@]3(CN2C(=O)[C@@]12C[C@H]1C(=O)N(Cc4ccc(Cl)c(Cl)c4)[C@]4(C[C@H]5C(=O)N[C@@H](Cc6ccccc6)C(=O)N5C4)C(=O)N1C2)NC(=O)[C@H](CCCCNC(=S)Nc1ccc2c(c1)C(=O)OC21c2ccc(O)cc2Oc2cc(O)ccc21)NC3=O [Compound 5]
- Kd (HDM2_25–117): 6.3 µM

SMILES: CC(C)CN1C(=O)[C@@H]2C[C@@]3(CN2C(=O)[C@@]12C[C@H]1C(=O)N(Cc4ccc(Cl)c(Cl)c4)[C@@]4(C[C@@H]5C(=O)N[C@H](CCc6ccccc6)C(=O)N5C4)C(=O)N1C2)NC(=O)[C@@H](CCCCNC(=S)Nc1ccc2c(c1)C(=O)OC21c2ccc(O)cc2Oc2cc(O)ccc21)NC3=O [Compound 10]
- Kd (HDM2_25–117): 4.8 µM
